Reference: patent US8697031B2, “Dual function polymer micelles” (Case Western Reserve University, priority 2004, dated 2014)
Where no end group is shown, it is not given here.

System: SLK tumor endothelial cells
Assay: Flow cytometry analysis of micelle uptake
Format: cell-based
Settings: SLK cells pre-incubated with free blocking peptide at 9 mM, then co-incubated with micelles
Protocol: SLK cells were seeded at 125,000 cells/well in 6-well plates in 2 mL DMEM with 10% FBS. After 24 h, 1 mg of micelles (from 3.3 mg/ml micelle suspension) for each micelle formulation with different cRGD density (0, 5, 16, 76% cRGD) was added into each well and incubated at 37° C. for 2 h. Then, cells were washed, trypsinized and neutralized. After centrifugation at 1200 rpm for 5 min, cells were re-suspended in 1 mL PBS, followed by filtration and analysis using flow cytometry. […] In the control experiment, SLK cells were first incubated with a free blocking peptide, Ala-Ala-Arg-Gly-Asp-Tyr (AARGDY) (SEQ ID NO: 757), and then co-incubated with 76% cRGD-functionalized micelles.

## AARGDY
  inhibition of uptake of 76% cRGD-functionalized micelles: ~100%
